≈ marks a conversion by molar mass, not a printed value. Like-named read-outs stand apart in the source and are kept apart here. Values belong to the compound of their own block, whether it stands above or below them.
Experiments:
[1] = Conversion efficiency / PK profile after IV dose in rats (Compounds No. 5 and No. 7); assay type: in vivo; details: Rat, plasma, parent compound IV 1 mg/kg; read-out: Parent compound AUCinf
Protocol: Determination of conversion efficiency of Compound No. 5 and Compound No. 7 was conducted in rats. Animals were divided in two groups with two animals in each group. One group received an IV dose of prodrug and the other group received an IV dose of parent compound. Serial blood sampling was carried out at 0.08, 0.25, 0.5, 1, 2, 4, 7, and 24 h post dose from both of the animal groups. Blood samples were centrifuged to harvest plasma. Plasma samples of prodrug administered animals were simultaneously analyzed for both analytes (prodrug and parent compound) using LC-MS/MS. AUC of plasma concentrations versus time profiles were calculated in WinNonlin software and percentage conversion efficiency was determined using the formula: Percentage conversion efficiency=(AUCiv of parent compound from prodrug administered samples)/(AUCiv of parent compound from parent compound administered samples)/(molecular weight of parent compound)×(molecular weight of prodrug)×100. PK profile of Compound No. 5 and Compound No. 7 in rats are depicted in Table 7.

[2] = Solubility of parent compounds and prodrugs in phosphate buffer; assay type: physicochemical; details: aqueous buffer, thermodynamic from solid; parent compound, phosphate buffer, 25° C., more than 4 weeks, pH 7.0
Protocol: Parent compounds: About 5 mg of parent compounds (biologically active forms of prodrugs) were added to 950 μL of phosphate buffer, and mixed vigorously for 1 hour at 25° C. Then, these samples were stored at 25° C. for more than 4 weeks and filtered to remove undissolved parent compounds. Next, these solutions were diluted with 50% aqueous acetonitrile solution. The resulting test solutions were assayed by HPLC. Prodrugs: About 30 mg of prodrugs were added to 120 μL of phosphate buffer, and mixed vigorously for 1 hour at 25° C. After shaking, pH of these solutions were adjusted at pH 7.0 by 1 mol/L NaOH solution. Then, the total volume were adjusted to 280 μL with purified water. Next, these solutions were stored at 25° C. for more than 4 weeks and filtered to remove undissolved compounds. These solutions were diluted with 50% aqueous acetonitrile solution. The resulting test solutions were assayed by HPLC.

[3] = tested on: MRSA 562; test: Mouse lung infection model by MRSA 562 (neutropenic Swiss mice); assay type: in vivo, Staphylococcus aureus
Protocol: a) Method for Testing Therapeutic Effect of Compounds Using Mouse Lung Infection Model by MRSA 562
Mice were rendered neutropenic with two intra-peritoneal injections (IP) of cyclophosphamide on day −4 and day −1 prior to infection at the dose rate of 150 mg and 100 mg per kg body weight. Overnight grown MRSA 562 was diluted 1:10 in fresh Brain Heart Infusion broth and mixed 1:1 with 5% hog mucin. The bacterial suspension (3.16×10^6/mouce/50 μL) was then inoculated to each pre-anaesthetized mice (xylazine 5 mg/kg and ketamine 100 mg/kg mixture) into the nares of Swiss mice (4 to 6-week-old, Vivo Biotech Limited, Hyderabad, India), n=5 mice per group). The test compound was administered to the mice once, twice and four times at an interval of 24, 12 and 6 hr, respectively. The number of bacteria in the lungs was determined in the non-treated group immediately before initial administration of the test compound (pre-control) and in the non-treated group (post-control) and the test compound-administered group on the next day of administration of the test compound and infection. A change in the number of bacteria in the lungs was used as an index of therapeutic effect.

[4] = tested on: VRE IV258 21076; test: Neutropenic mouse thigh infection model, VRE IV258 21076; assay type: in vivo, Enterococcus
Protocol: (§1) (b) Method for Testing Therapeutic Effect of Compounds Against MRSA 02541 and VRE IV258 21076 Using Neutropenic Mouse Thigh Infection Model
(§2) Swiss Webster mice of 4 to 6-week-old were used for this experiments (Vivo Biotech Limited, Hyderabad, India, n=5 mice per group). Mice were rendered neutropenic as described above. Overnight grown culture of MRSA 02541 on Mueller-Hinton broth (MHB) was adjusted to 0.5 Mac Farland. The suspension was then diluted 1:100 in fresh MHB and 100 μl was injected intra-muscularly in the right thigh muscles of the mice (n=5/group). In case of VRE IV 258-21076 culture was mixed with 10% hog mucin in 1:1 proportion. The bacterial inocula were confirmed by quantitative culture analyses and found to be 3×10^6 CFU for MRSA and 2×10^6 for VRE IV258-21076 per mL. Treatment started 2 h post infection. The test compound was administered to the mice one to eight times at an interval of 3 to 24 hr. The number of bacteria in the thigh muscle was counted for the non-treated group immediately before initial administration of the test compound (pre-control), for the non-treated group (post-control) and for the test compound-administered group on the next day of administration of the test compound and infection. A change in the number of bacteria in the thigh was used as an index of therapeutic effect.

[5] = Conversion efficiency / PK profile after IV dose in rats (Compounds No. 1 and No. 2); assay type: in vivo; details: 15.3 mg/kg; Rat, plasma, prodrug IV 15.300 mg/kg, analyte prodrug; read-out: Compound No. 1 AUCinf
Protocol: Method of Testing Conversion Efficiency Determination of conversion efficiency of Compound No. 1 and Compound No. 2 was conducted in rodents (mice and rats) and non-rodents (monkeys and dogs). Animals were divided in two groups with two animals in each group. One group received an intravenous (IV) dose of prodrug and the other group received an IV dose of parent compound. The dose of prodrug was taken as molar equivalent dose of parent compound. Serial blood sampling was carried out at 0.083, 0.33, 1, 2, 4, 8 and 24 h post IV dose from both the animal groups. Blood samples were centrifuged to harvest plasma. Plasma samples were stored at −80° C. until analysis. Plasma samples of prodrug administered animals were simultaneously analyzed for both analytes (prodrug and parent compound) using LC-MS/MS. Area under the curve (AUC) of plasma concentrations versus time profiles were calculated in WinNonlin software and percentage conversion efficiency was determined using the formula: Percentage conversion efficiency=(AUCiv of parent compound (from prodrug administered samples)×100/(AUCiv of parent compound (from parent compound administered samples). PK profile of Compounds No. 1 and No. 2 in rats, dogs and monkeys are depicted in Table 5 and 6, respectively (also shown in FIGS. 1 and 2).

[6] = tested on: MRSA 02541; test: Neutropenic mouse thigh infection model, MRSA 02541; assay type: in vivo, Staphylococcus aureus
Protocol: as §1, §2

[7] = tested on: MRSA 02541; test: Neutropenic Sprague Dawley rat thigh infection model, MRSA 02541; assay type: in vivo, Staphylococcus aureus; details: for log10 kill (number of bacteria in the thigh): 25 mg/kg, IV qid
Protocol: c) Method for Testing Therapeutic Effect of Compounds Against MRSA 02541 Using Neutropenic Sprague Dawley Rat Thigh Infection Model
Sprague Dawley rats of 4 to 6-week-old were used for this experiments (Vivo Biotech Limited, Hyderabad, India, n=4 rats per group). Rats were rendered neutropenic by intraperitoneal injection of cyclophosphamide. Overnight grown culture of MRSA 02541 in MHB was adjusted to 0.5 Mac Farland. The suspension was then diluted 1:10 in fresh MHB and 200 μl was injected intra-muscularly in the right thigh muscles of the rat. The bacterial inocula were confirmed by quantitative culture analyses and found to be 6×10^6 CFU per rat thigh muscle. Treatment started 2 h post infection. The test compound was administered to the rat four times at an interval of 6 hr. The number of bacteria in the thigh muscle was counted for the non-treated group immediately before initial administration of the test compound (2 h pre-control), for the non-treated group (26 h post-control) and for the test compound-administered group on the next day of administration of the test compound and infection. A change in the number of bacteria in the thigh was used as an index of therapeutic effect.

[8] = tested on: Clostridium difficile 2009155, a NAP1/027 strain; test: Hamster CDI model; assay type: in vivo; details: 0.3 mg/kg/day for 5 days
Protocol: d) Method for Testing Therapeutic Effect of Compounds in Hamster CDI Model
The in vivo efficacy of Compound No. 1 was evaluated in a hamster CDI model caused by Clostridium difficile 2009155, a NAP1/027 strain. The Syrian hamsters (7-9 weeks old, National Centre for Laboratory Animal Sciences, National Institute Nutrition, Hyderabad, India.) were acclimatized at least 7 days prior the experiment. Hamsters primed with a single subcutaneous injection of clindamycin (30 mg/kg) 1 day prior to infection. Hamsters were infected by oral gavage with 1 mL of spore suspension (2-3×10^5) prepared in PBS. The test compounds were prepared using the 0.25 w/v % Methyl Cellulose Solution for oral administration and 10% HP ß-CD for SC administration and treatment was started 6 h post infection at an interval of 24 h for 5 days. Hamsters were administered a dose of 0.03-0.3 mg/kg/day for 5 days. The death and survival time of the hamsters treated with test compound administered group and non-treated group (vehicle-control) were recorded once daily for 35 days and were compared. A change in the survival time was used as an index of therapeutic effect.

[9] = Solubility in Japanese Pharmacopeia First Fluid (JP1) and Second Fluid (JP2); assay type: physicochemical; details: thermodynamic from solid, room temperature
Protocol: Method of Testing Solubility in Water and Neutral Buffer A 10 mmol/L solution of the test compound was prepared in DMSO and dispensed 100 μL of 10 mmol/L DMSO stock solutions into labeled glass tubes in duplicate, one for Japanese Pharmacopeia First Fluid (JP1) and second for Japanese Pharmacopeia Second Fluid (JP2). After evaporation of DMSO from each tube, 500 μL of JP1 and JP2 fluid were added in each tube, respectively. These tubes were sonicated for 1 minute and placed on shaker for 30 minutes with an interval of 30 seconds at every 5 minute. Tubes were placed in dark at room temperature for 1 hour and solution was filtered through membrane filter. The filtrate was diluted 2-fold and 10-fold. The resulting test solutions was analyzed and quantified against the standards using UPLC (standard preparation-10 mmol/L solution in DMSO is serially diluted with 50% aqueous acetonitrile solution to prepare 2 solutions; 100 μmol/L standard solution and 5 μmol/L standard solutions).

[10] = Solubility of parent compounds and prodrugs in phosphate buffer; assay type: physicochemical; details: aqueous buffer, thermodynamic from solid; prodrug, phosphate buffer adjusted with NaOH, 25° C., more than 4 weeks, pH 7.2
[11] = tested on: animal infection models; details: compound of WO 2009/084614; cited from earlier work

Structure (SMILES): CCc1[nH]c(C(=O)N[C@@H]2CCN(c3nnc(C(C)O)s3)C[C@@H]2OC)nc1Cl (stereo partly drawn) [Compound D, 4-chloro-5-ethyl-N-{(3S,4R)-1-[5-(1-hydroxyethyl)-1,3,4-thiadiazol-2-yl]-3-methoxypiperidin-4-yl}-1H-imidazole-2-carboxamide]
AUC(0-inf) [1]: 3110 ng·h/mL
solubility [2]: 752 µg/mL (≈ 1.81 mM)

Structure (SMILES): CCc1c(Cl)nc(C(=O)N[C@@H]2CCN(c3nnc(C(C)(C)O)s3)C[C@@H]2OC)n1COP(=O)(O)O [Compound No. 1, [4-Chloro-5-ethyl-2-({(3S,4R)-1-[5-(2-hydroxypropan-2-yl)-1,3,4-thiadiazol-2-yl]-3-methoxypiperidin-4-yl}carbamoyl)-1H-imidazol-1-yl]methyl dihydrogen phosphate]
log10 kill (number of bacteria in the lungs) ([3]; 6.25 mg/kg/dose, SC q6h, compared to 1 hour pre-control): 1.33 log10
log10 kill (number of bacteria in the lungs) ([3]; 6.25 mg/kg/dose, SC q6h, compared to 25 hour post control): 2.52 log10
log10 kill (number of bacteria in the lungs) ([3]; 12.5 mg/kg/dose, SC, q6h, compared to 1 hour pre-control): 1.76 log10
log10 kill (number of bacteria in the lungs) ([3]; 12.5 mg/kg/dose, SC, q6h, compared to 25 hour post control): 2.95 log10
Therapeutic effect (change in the number of bacteria in the lungs) ([3]; mouse lung infection, MRSA 562): exhibited the therapeutic effect
Cidal potential (number of bacteria in the thigh) ([4]; fractionated doses 50 mg/kg/dose q12h, 25 mg/kg/dose q6h, 12.5 mg/kg/dose q3h): cidal potential
Therapeutic effect (change in the number of bacteria in the thigh) ([4]; neutropenic mouse thigh, VRE IV258 21076): exhibited the therapeutic effect
AUC(0-inf) [5]: 270 ng·h/mL
Cidal potential (number of bacteria in the thigh) ([6]; 200 mg/kg/dose q24h, 100 mg/kg/dose q24h, and 50 mg/kg/dose q24h and their fractions irrespective of dosing schedule): cidal potential
Therapeutic effect (change in the number of bacteria in the thigh) ([6]; neutropenic mouse thigh, MRSA 02541): exhibited the therapeutic effect
log10 kill (number of bacteria in the thigh) ([7]; compared to 2 hours pre-control): 1 log10
log10 kill (number of bacteria in the thigh) ([7]; compared to 26 hours post control): 2.99 log10
Therapeutic effect (change in the number of bacteria in the thigh) ([7]; neutropenic rat thigh, MRSA 02541): exhibited the therapeutic effect
Survival on day 35 [8]: 100%
solubility at 30 min ([9]; pH 1.2, simulated gastric fluid, Japanese Pharmacopeia First Fluid (JP1), read-out: Solubility JP1): > 1280 µg/mL
solubility at 30 min ([9]; pH 6.8, aqueous buffer, Japanese Pharmacopeia Second Fluid (JP2), read-out: Solubility JP2): > 1320 µg/mL

Structure (SMILES): CCO[C@H]1CN(c2nncs2)CC[C@H]1NC(=O)c1nc(Cl)c(CC)[nH]1 [Compound No. 150]
Efficacy in animal infection models [11]: not being efficacious

Further lines, results first:

AUC(0-inf) [1]: 990 ng·h/mL
solubility [2]: 2440 µg/mL (≈ 5.67 mM)
Structure (SMILES): CCc1[nH]c(C(=O)N[C@@H]2CCN(c3nnc([C@H](O)CO)s3)C[C@@H]2OC)nc1Cl [Compound C, 4-chloro-N-[(3S,4R)-1-{5-[(1R)-1,2-dihydroxyethyl]-1,3,4-thiadiazol-2-yl}-3-methoxypiperidin-4-yl]-5-ethyl-1H-imidazole-2-carboxamide]

solubility [10]: 102000 µg/mL
Structure (SMILES): CCc1c(Cl)nc(C(=O)N[C@@H]2CCN(c3nnc([C@@H](O)CO)s3)C[C@@H]2OC)n1COP(=O)(O)O [Compound No. 9, [4-Chloro-2-({(3S,4R)-1-[5-(1,2-dihydroxyethyl)-1,3,4-thiadiazol-2-yl]-3-methoxypiperidin-4-yl}carbamoyl)-5-ethyl-1H-imidazol-1-yl]methyl dihydrogen phosphate]

Source: patent US10752647B2, “N-phosphonoxymethyl prodrugs of hydroxyalkyl thiadiazole derivatives” (DAIICHI SANKYO COMPANY, LIMITED, priority 2017, dated 2020)
